Where two headings read alike, the source gives them in different places.
Legend:
SARS-CoV-2 [1] = format: cell-based
Vero E6 cells [2] = system: Vero E6 cells
Vero E6 cells [3] = conditions: 48 hours, CellTiterGlo
SARS-CoV-2 [4] = format: cell-based; conditions: compound 10 and 31.6 μM, MOI 0.01, 72 hours
[5] = 1 hour pre-treatment, 1 nM-100 μM, MOI 0.05, 48 hours, Vero E6 cells

O=c1c(O)cc([C@H]2Oc3cc(O)cc(O)c3C[C@H]2O)cc2c([C@H]3Oc4cc(O)cc(O)c4C[C@H]3O)cc(O)c(O)c12 [Theaflavin]
effect on Viral Load (viral burden) (SARS-CoV-2 [1]; [5]): did not show an effect | effect on Host Cell Number (cell viability) (Vero E6 cells [2]): did not show an effect

C[C@@H]1CC[C@@]2(OC1)O[C@H]1C[C@H]3[C@@H]4CC=C5C[C@@H](O[C@@H]6O[C@H](CO)[C@@H](O[C@@H]7O[C@@H](C)[C@H](O)[C@@H](O)[C@H]7O)[C@H](O)[C@H]6O[C@@H]6O[C@@H](C)[C@H](O)[C@@H](O)[C@H]6O)CC[C@]5(C)[C@H]4CC[C@]3(C)[C@H]1[C@@H]2C [Dioscin]
effect on Viral Load (viral burden) (SARS-CoV-2 [1]; [5]): reduction in Viral Load levels | concentrations that did not significantly impact Vero E6 cell viability compared to the DMSO treated control (Vero E6 cells [3]): less than or equal to 0.1 μM | toxicity observed at (and above) concentration (Vero E6 cells [3]): ≥ 1 µM

COc1cc(O)c2c(=O)cc(-c3ccc(OC)c(-c4c(O)cc(O)c5c(=O)cc(-c6ccc(O)cc6)oc45)c3)oc2c1 [Ginkgetin]
effect on Viral Load (viral burden) (SARS-CoV-2 [1]; [5]): reduction in Viral Load levels

O=C(/C=C/c1ccc(O)cc1)OC[C@H]1O[C@@H](Oc2c(-c3ccc(O)cc3)oc3cc(O)cc(O)c3c2=O)[C@H](O)[C@@H](O)[C@@H]1O [Tiliroside]
concentrations that only mildly impacted Vero E6 cell viability compared to the DMSO treated control (Vero E6 cells [3]): less than or equal to 10 μM | toxicity observed at (and above) concentration (Vero E6 cells [3]): ≥ 100 µM | effect on Host Cell Number (cell viability) (Vero E6 cells [2]): did not show an effect

CN1C[C@@H](C(=O)N[C@]2(C)O[C@@]3(O)[C@@H]4CCCN4C(=O)[C@H](Cc4ccccc4)N3C2=O)C=C2c3cccc4[nH]cc(c34)C[C@H]21 [Ergotamine]
effect on Viral Load (viral burden) (SARS-CoV-2 [1]; [5]): reduction in Viral Load levels

COc1ccc(-c2cc(=O)c3c(O)cc(O)cc3o2)cc1-c1c(O)cc(O)c2c(=O)cc(-c3ccc(O)cc3)oc12 [Bilobetin]
effect on Viral Load (viral burden) (SARS-CoV-2 [1]; [5]): reduction in Viral Load levels

O=c1cc(-c2ccc(O)c(-c3c(O)cc(O)c4c(=O)cc(-c5ccc(O)cc5)oc34)c2)oc2cc(O)cc(O)c12 [Amentoflavone]
effect on Viral Load (viral burden) (SARS-CoV-2 [1]; [5]): reduction in Viral Load levels

Punicalagin
effect on Viral Load (viral burden) (SARS-CoV-2 [1]; [5]): reduction in Viral Load levels

C[C@@H]1O[C@@H](OC[C@H]2O[C@@H](Oc3c(-c4ccc(O)c(O)c4)oc4cc(O)cc(O)c4c3=O)[C@H](O)[C@@H](O)[C@@H]2O)[C@H](O)[C@H](O)[C@H]1O [Rutin]
effect on Host Cell Number (cell viability) (Vero E6 cells [2]): did not show an effect

Oc1cc(O)c2c(c1)O[C@H](c1ccc(O)c(O)c1)[C@H](O)[C@H]2c1c(O)cc(O)c2c1O[C@H](c1ccc(O)c(O)c1)[C@H](O)C2 [Procyanidin B2]
effect on Viral Load (viral burden) (SARS-CoV-2 [1]; [5]): did not show an effect | effect on Host Cell Number (cell viability) (Vero E6 cells [2]): did not show an effect

O=c1oc2c(O)c(O)cc3c(=O)oc4c(O)c(O)cc1c4c23 [Ellagic Acid]
Remdesivir concentration at which the compound synergized (SARS-CoV-2 [4]): ≤ 0.625 µM | combined effect with Remdesivir on host cell viability (SARS-CoV-2 [4]): synergized

Miquelianin/Quercetin 3-glucuronide
effect on Viral Load (viral burden) (SARS-CoV-2 [1]): did not show an effect

Hypericin
effect on Viral Load (viral burden) (SARS-CoV-2 [1]; [5]): reduction in Viral Load levels

CC1OC(OCC2OC(Oc3c(-c4ccc(O)cc4)oc4cc(OC5OC(C)C(O)C(O)C5O)cc(O)c4c3=O)C(O)C(O)C2O)C(O)C(O)C1O (stereo not shown) [Robinin]
effect on Viral Load (viral burden) (SARS-CoV-2 [1]; [5]): did not show an effect | effect on Host Cell Number (cell viability) (Vero E6 cells [2]): did not show an effect

O=C(O[C@H]1Cc2c(O)cc(O)cc2O[C@H]1c1cc(O)c(O)c2c(=O)c(O)cc([C@H]3Oc4cc(O)cc(O)c4C[C@H]3O)cc12)c1cc(O)c(O)c(O)c1 [Theaflavin-3-gallate, Theaflavin 3-gallate]
effect on Viral Load (viral burden) (SARS-CoV-2 [1]; [5]): reduction in Viral Load levels

O=c1oc2cc(O)ccc2c2ccc(O)cc12 [Urolithin A]
Remdesivir concentration at which the compound synergized (SARS-CoV-2 [4]): ≤ 1.25 µM | combined effect with Remdesivir on host cell viability (SARS-CoV-2 [4]): synergized

Source: patent publication US20230233514A1, “ANTIVIRAL COMPOUNDS AND METHODS OF USING THE SAME” (priority 2020, published 2023)
